Values of other authors, collected in patent US20180271760A1, “Skin Care Compositions” (priority 2017, published 2018).
In brackets after ≈: the same amount, converted by molar mass.

What was measured:
[1] = in 4 weeks

Structure (SMILES) | reduction of TEWL [1] | solubility in glycerol and glycols (glycerol and glycols) | solubility in water (water, solubility is pH dependent)
NC(=O)c1cccnc1 [niacinamide] | 24% |  | 
O=C(O)CCCCCCCC(=O)O [Azelaic acid] |  | soluble | 2100 µg/mL (≈ 11.2 mM)
